Reference: the supplement of paper PMC10307832

Columns and labels:
Test in all cases: relative viability (nuclei count vs DMSO), 5 days (fraction); higher = more cells survive
EPLC-272H = system: EPLC-272H
Outline: (§1)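 Cells from lung cancer lines were seeded into 1536-well plates and, one day later, dosed by pin tool. Treatments were either a single drug or a fixed dose of an anchor drug with five library-drug doses (not always all listed) in √10 steps. After 5 days, nuclei were stained in a one-step fixation (final 0.05% Triton X-100, 1% formaldehyde, 1 ug/ml Hoechst) and counted on 4× images, and relative viability is the treated-to-vehicle nuclei ratio, as the median of duplicate plates.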

HCC-78 = system: HCC-78
Outline: as §1

CAL-12T = system: CAL-12T
Outline: as §1

HCC-15 = system: HCC-15
Outline: as §1

NCI-H358 = system: NCI-H358
Outline: as §1

ABC-1 = system: ABC-1
Outline: as §1

NCI-H2126 = system: NCI-H2126
Outline: as §1

LXF-289 = system: LXF-289
Outline: as §1

NCI-H441 = system: NCI-H441
Outline: as §1

NCI-H1975 = system: NCI-H1975
Outline: as §1

COR-L 105 = system: COR-L 105
Outline: as §1

NCI-H1915 = system: NCI-H1915
Outline: as §1

NCI-H2085 = system: NCI-H2085
Outline: as §1

UMC-11 = system: UMC-11
Outline: as §1

ChaGo-K-1 = system: ChaGo-K-1
Outline: as §1

NCI-H3122 = system: NCI-H3122
Outline: as §1

NCI-H322M = system: NCI-H322M
Outline: as §1

NCI-H1993 = system: NCI-H1993
Outline: as §1

HOP-62 = system: HOP-62
Outline: as §1

NCI-H2023 = system: NCI-H2023
Outline: as §1

NCI-H1755 = system: NCI-H1755
Outline: as §1

EMC-BAC-2 = system: EMC-BAC-2
Outline: as §1

NCI-H1666 = system: NCI-H1666
Outline: as §1

O=C(O)c1ccc(-c2c[nH]c3ncc(-c4ccccc4)cc23)cc1C1CCCC1 + O=C(c1cc(Cc2n[nH]c(=O)c3ccccc23)ccc1F)N1CCN(C(=O)C2CC2)CC1 [Olaparib] (partner 8 µM)
relative viability (EPLC-272H; first compound 0.04 µM): 0.924 | relative viability (EPLC-272H; first compound 0.1265 µM): 1.05 | relative viability (EPLC-272H; first compound 0.4 µM): 0.566 | relative viability (EPLC-272H; first compound 1.265 µM): 0.257 | relative viability (HCC-78; first compound 0.1265 µM): 0.814 | relative viability (HCC-78; first compound 0.4 µM): 0.784 | relative viability (HCC-78; first compound 1.265 µM): 0.71 | relative viability (CAL-12T; first compound 0.04 µM): 0.656 | relative viability (CAL-12T; first compound 0.1265 µM): 0.668 | relative viability (CAL-12T; first compound 0.4 µM): 0.566 | relative viability (CAL-12T; first compound 1.265 µM): 0.379 | relative viability (HCC-15; first compound 0.04 µM): 0.747 | relative viability (HCC-15; first compound 0.1265 µM): 0.671 | relative viability (HCC-15; first compound 0.4 µM): 0.56 | relative viability (HCC-15; first compound 1.265 µM): 0.377 | relative viability (NCI-H358; first compound 0.04 µM): 0.603 | relative viability (NCI-H358; first compound 0.1265 µM): 0.657 | relative viability (NCI-H358; first compound 0.4 µM): 0.529 | relative viability (NCI-H358; first compound 1.265 µM): 0.275 | relative viability (ABC-1; first compound 0.04 µM): 1.03 | relative viability (ABC-1; first compound 0.1265 µM): 0.726 | relative viability (ABC-1; first compound 0.4 µM): 0.611 | relative viability (ABC-1; first compound 1.265 µM): 1.1 | relative viability (NCI-H2126; first compound 0.04 µM): 0.884 | relative viability (NCI-H2126; first compound 0.1265 µM): 0.861 | relative viability (NCI-H2126; first compound 0.4 µM): 0.853 | relative viability (NCI-H2126; first compound 1.265 µM): 0.64 | relative viability (LXF-289; first compound 0.04 µM): 1.07 | relative viability (LXF-289; first compound 0.1265 µM): 0.935 | relative viability (LXF-289; first compound 0.4 µM): 0.709 | relative viability (LXF-289; first compound 1.265 µM): 0.507 | relative viability (NCI-H441; first compound 0.04 µM): 0.606 | relative viability (NCI-H441; first compound 0.1265 µM): 0.563 | relative viability (NCI-H441; first compound 0.4 µM): 0.467 | relative viability (NCI-H441; first compound 1.265 µM): 0.265 | relative viability (NCI-H1975; first compound 0.04 µM): 0.724 | relative viability (NCI-H1975; first compound 0.1265 µM): 0.801 | relative viability (NCI-H1975; first compound 0.4 µM): 0.842 | relative viability (NCI-H1975; first compound 1.265 µM): 0.539 | relative viability (COR-L 105; first compound 0.04 µM): 0.723 | relative viability (COR-L 105; first compound 0.1265 µM): 0.682 | relative viability (COR-L 105; first compound 0.4 µM): 0.75 | relative viability (COR-L 105; first compound 1.265 µM): 0.647 | relative viability (NCI-H1915; first compound 0.04 µM): 0.266 | relative viability (NCI-H1915; first compound 0.1265 µM): 0.25 | relative viability (NCI-H1915; first compound 0.4 µM): 0.226 | relative viability (NCI-H1915; first compound 1.265 µM): 0.203 | relative viability (NCI-H2085; first compound 0.04 µM): 0.74 | relative viability (NCI-H2085; first compound 0.1265 µM): 0.793 | relative viability (NCI-H2085; first compound 0.4 µM): 0.746 | relative viability (NCI-H2085; first compound 1.265 µM): 0.474 | relative viability (UMC-11; first compound 0.04 µM): 0.366 | relative viability (UMC-11; first compound 0.1265 µM): 0.307 | relative viability (UMC-11; first compound 0.4 µM): 0.825 | relative viability (UMC-11; first compound 1.265 µM): 0.398 | relative viability (ChaGo-K-1; first compound 0.04 µM): 0.418 | relative viability (ChaGo-K-1; first compound 0.1265 µM): 0.429 | relative viability (ChaGo-K-1; first compound 0.4 µM): 0.401 | relative viability (ChaGo-K-1; first compound 1.265 µM): 0.314 | relative viability (NCI-H3122; first compound 0.04 µM): 0.654 | relative viability (NCI-H3122; first compound 0.1265 µM): 0.666 | relative viability (NCI-H3122; first compound 0.4 µM): 0.602 | relative viability (NCI-H3122; first compound 1.265 µM): 0.617 | relative viability (NCI-H322M; first compound 0.04 µM): 0.856 | relative viability (NCI-H322M; first compound 0.1265 µM): 0.718 | relative viability (NCI-H322M; first compound 0.4 µM): 0.661 | relative viability (NCI-H322M; first compound 1.265 µM): 0.554 | relative viability (NCI-H1993; first compound 0.04 µM): 0.902 | relative viability (NCI-H1993; first compound 0.1265 µM): 1.19 | relative viability (NCI-H1993; first compound 0.4 µM): 1.04 | relative viability (NCI-H1993; first compound 1.265 µM): 0.974 | relative viability (HOP-62; first compound 0.04 µM): 0.352 | relative viability (HOP-62; first compound 0.1265 µM): 0.448 | relative viability (HOP-62; first compound 0.4 µM): 0.356 | relative viability (HOP-62; first compound 1.265 µM): 0.382 | relative viability (NCI-H2023; first compound 0.04 µM): 0.475 | relative viability (NCI-H2023; first compound 0.1265 µM): 0.485 | relative viability (NCI-H2023; first compound 0.4 µM): 0.408 | relative viability (NCI-H2023; first compound 1.265 µM): 0.238 | relative viability (NCI-H1755; first compound 0.04 µM): 0.879 | relative viability (NCI-H1755; first compound 0.1265 µM): 0.943 | relative viability (NCI-H1755; first compound 0.4 µM): 0.885 | relative viability (NCI-H1755; first compound 1.265 µM): 0.86 | relative viability (EMC-BAC-2; first compound 0.04 µM): 0.453 | relative viability (EMC-BAC-2; first compound 0.1265 µM): 0.506 | relative viability (EMC-BAC-2; first compound 0.4 µM): 0.429 | relative viability (EMC-BAC-2; first compound 1.265 µM): 0.368 | relative viability (NCI-H1666; first compound 0.04 µM): 0.781 | relative viability (NCI-H1666; first compound 0.1265 µM): 0.742 | relative viability (NCI-H1666; first compound 0.4 µM): 0.741 | relative viability (NCI-H1666; first compound 1.265 µM): 0.678
